Results on 68 molecules are retold here after PubChem BioAssay AID720589 (Broad Institute, 2013).

Calls of active or inactive are those of the source.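 Rule for the calls: active = fitted curve drops below -35% activity at a concentration within twice the top valid tested dose; inconclusive = no clear call, values can overlap the other calls; inactive = signal rising instead of falling, among other cases.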

The first assay is described as follows: ATP-based viability loss in HepG2 cells – cell-based, CellTiter-Glo luminescence, cherry-pick, set 3, cytotoxicity control, dose response (AID 720589). The conditions noted are these: HepG2 viability, ATP luminescence (CellTiter-Glo), 72 h; at 0.011 µM; stronger effect = lower value; 0% = untreated, negative = ATP loss. On the technique in general: In ATP-based viability assays light output follows the ATP content of the culture.
Consider `COc1ccc(N=C2C(=O)Nc3ccc(C)c(Br)c32)cc1`, for which the max activity was 23.9% (inactive).
Same read-out and setting: next, `CCCCNC(=O)C(c1ccc(OCC(=O)OC)c(C(=O)OC)c1)N(CCOC)C(=O)CCCCCN1C(=O)NC(c2ccc(-c3ccccc3)cc2)C(C(=O)OCc2ccccc2)=C1C` (stereo not drawn): 32.5% (inactive); `N/C(=C\C(=O)c1cc(Cl)ccc1O)C(Cl)(Cl)Cl`: -18.1% (inactive); `O=C1CCCC2=C1C(c1ccccn1)Nc1ccc(C(=O)c3ccccc3)cc1N2` (stereo not drawn): 38.6% (inactive).
On the same count and under the same terms, the same measure for `COc1cc(/C=N/NS(=O)(=O)c2ccc3ccccc3c2)ccc1OCc1ccc(C(=O)O)cc1`: 33.7% (inactive); for `CC(=O)Nc1cccc(-c2ccnc3c2CC(C)(C(=O)NCc2ccc(N(C)C)cc2)O3)c1` (stereo not drawn): 32.9% (inactive); for `COc1ccc(C(=O)Nc2cccc(C(=O)N/N=C/c3ccc(OC)cc3OC)c2)cc1`: 23.8% (inactive).
Same read-out and setting: next, `C=CC[n+]1c(-c2ccc(C)cc2)csc1Nc1ccc(NC(C)=O)cc1`: 20.8% (inactive); `CCOc1ccc(-c2noc(CCC(=O)O)n2)cc1`: 7.93% (inactive).

Still in this assay, the particulars now being: HepG2 viability, ATP luminescence (CellTiter-Glo), 72 h; at 0.035 µM; stronger effect = lower value; 0% = untreated, negative = ATP loss.
For the molecule `CN1c2ccc(-c3ccc(C#N)cc3)cc2[C@H]2[C@H](CCN2S(=O)(=O)c2cccc(F)c2)[C@H]1CO`, the max activity was -29.8% (inactive).
The same measure, in the same setting: next, `COc1ccc(C2=Nn3c(nnc3-c3ccccc3OC)SC2)cc1OCC1CC1`: -29% (inactive).

The same assay, now with this note: HepG2 viability, ATP luminescence (CellTiter-Glo), 72 h; at 0.1 µM; stronger effect = lower value; 0% = untreated, negative = ATP loss.
For `C/C(=N\Nc1cccc2cccnc12)c1ccccn1`, the max activity was -36.8% (inactive).
On the same count and under the same terms, the same measure for `C[C@@H]1CN([C@@H](C)CO)S(=O)(=O)c2ccc(C#CCN(C)C)cc2O[C@@H]1CN(C)Cc1ccncc1`: -45% (inactive).
Same read-out and setting: next, `C[C@H]1CN([C@@H](C)CO)C(=O)Cc2cc(NC(=O)CCCCCC(=O)Nc3ccccc3N)ccc2O[C@H]1CN(C)Cc1ccc(Oc2ccccc2)cc1`: -23.9% (inactive); `O=C1Nc2ccccc2C1=Nc1ccccc1-c1ccccc1`: 10.3% (inactive).
The same measure, in the same setting: next, `Cc1noc(C)c1NC(=O)Nc1ccc2c(c1)CC(=O)N([C@@H](C)CO)C[C@@H](C)[C@@H](CN(C)Cc1ccc(Cl)c(Cl)c1)O2`: 36.5% (inactive).
Regarding `O=C(O)c1ccc(N/N=C/c2cc(Br)cs2)cc1`, the max activity was -24.3% (inactive).
For the molecule `CCCNC(=O)[C@@H]1[C@@H](CO)[C@@H]2Cn3c(ccc(-c4ccccc4)c3=O)[C@H]1N2C(=O)CC`, the max activity is -16.5% (inactive).
Same read-out and setting: next, `CC(=O)c1ccc(N=C2C(=O)Nc3ccccc32)cc1`: -37.4% (inactive).

Staying with this assay, now noted: HepG2 viability, ATP luminescence (CellTiter-Glo), 72 h; at 0.3 µM; stronger effect = lower value; 0% = untreated, negative = ATP loss.
For the molecule `C[C@H]1CN([C@@H](C)CO)S(=O)(=O)c2ccc(C#Cc3ccncc3)cc2O[C@@H]1CN(C)S(=O)(=O)c1ccccc1`, the max activity is -9.66% (inactive).
Same read-out and setting: the same measure for `O=C(NC1CCCC1)C(c1ccccc1)n1c(CSCCOc2ccccc2)nc2ccccc21` (stereo not drawn): -34.7% (inactive); for `COc1cc(/C=C/C(=O)/C=C(O)/C=C/c2ccc(O)c(OC)c2)ccc1O`: -31.5% (inactive); for `CCOc1ccccc1CNC(=O)c1ccc(Sc2ccc(Cl)cc2)c(NC(C)=O)c1`: -29.5% (inactive).
Still for that read-out and setting: next, `COc1ccc(S(=O)(=O)N2CCCc3nc(-c4ccc(F)cc4)ccc32)cc1`: -23.5% (inactive); `CC(C)(C)C(=O)Nc1ccc(N=Nc2ccccc2)cc1`: -12.3% (inactive); `COC(=O)C[C@@H]1CC[C@@H]2[C@H](COc3ccc(NC(=O)c4cc(C)on4)cc3C(=O)N2C)O1`: -20% (inactive).
As for `COC(=O)C[C@@H]1CC[C@@H]2[C@@H](COc3ccc(NC(=O)Nc4ccccc4C)cc3C(=O)N2C)O1`, the max activity is -23.1% (inactive).
On the same count and under the same terms, next, `O=C(CNC(=O)Cc1ccccc1)N=Nc1c(O)n(Cc2ccc3c(c2)OCO3)c2ccccc12`: -28.9% (inactive); `N#C[C@H]1[C@H](c2ccc(-c3ccccc3F)cc2)[C@@H](CO)N1C(=O)Cc1ccccc1`: -22.2% (inactive).
Still for that read-out and setting: the same measure for `CCCc1cc(=O)oc2c3c(c4c(c12)OC(C)(C)C=C4)OC(C)C(C)C3O` (stereo not drawn): -25.9% (inactive).

Staying with this assay, now noted: HepG2 viability, ATP luminescence (CellTiter-Glo), 72 h; at 0.9 µM; stronger effect = lower value; 0% = untreated, negative = ATP loss.
Turning to `COC(=O)C[C@@H]1CC[C@@H]2[C@H](COc3ccc(NC(=O)Nc4cccc(Cl)c4)cc3C(=O)N2C)O1`, the max activity was -25.8% (inactive).
Still for that read-out and setting: next, `CC(C)(C)c1ccc(Oc2ccc(N)cn2)cc1`: 14% (inactive); `C[C@@H]1CN([C@H](C)CO)C(=O)c2cc(NC(=O)CCCCCC(=O)Nc3ccccc3N)ccc2O[C@H]1CN(C)S(=O)(=O)c1ccc(Cl)cc1`: -26.7% (inactive); `N#C[C@H]1[C@H](c2ccc(-c3ccccc3F)cc2)[C@@H](CO)N1C(=O)c1ccccn1`: -27.4% (inactive).
As to `COC(=O)c1cccc(NC(=O)NC(=O)c2ccccc2Cl)c1`, the max activity was -19.2% (inactive).
Same read-out and setting: next, `COc1ccc(OC)c(-c2nnc3n2N=C(c2ccc(OC)c(OC4CCCC4)c2)CS3)c1`: -30% (inactive).

The assay is the same for the next values; noted with them: HepG2 viability, ATP luminescence (CellTiter-Glo), 72 h; at 2.85 µM; stronger effect = lower value.
On to `C[C@]12CC[C@H](O)C[C@H]1CC[C@@H]1C2CC[C@]2(C)[C@@H](C3=CC(=O)OC3)[C@@H](O)C[C@]12O` (stereo partly drawn), for which the max activity is -53.6% (inactive).

Staying with this assay, now noted: HepG2 viability, ATP luminescence (CellTiter-Glo), 72 h; at 2.85 µM; stronger effect = lower value; 0% = untreated, negative = ATP loss.
For the molecule `CCOc1ccc(-c2cc(CCCC(=O)NCc3ccc(C)cc3)no2)cc1`, the max activity was -24.4% (inactive).
On the same count and under the same terms, the same measure for `C/C=C/c1ccc(C2[C@@H]3CN(C(=O)Cc4ccccc4)C[C@H]2N3)cc1` (stereo partly drawn): -29.1% (inactive); for `O=C(C[C@@H]1CC[C@@H]2[C@H](COC[C@@H](O)CN2S(=O)(=O)c2ccc(F)cc2)O1)NCc1ccc(Cl)c(Cl)c1`: -11.2% (inactive).
Same read-out and setting: the same measure for `C(=Cc1c[nH]c2ccccc12)c1ccc2ccccc2n1`: -21.4% (inactive); for `Cc1cc(C(=O)Nc2ccc3c(c2)C(=O)N(C)[C@@H]2CC[C@H](CC(=O)N[C@H](C)c4ccccc4)O[C@H]2CO3)no1`: -28.2% (inactive); for `CN(C)c1ccc(N=Nc2ccccc2Br)cc1`: -41.2% (inactive).
Same read-out and setting: next, `COc1cc(OC)cc(-c2cc3nc(C)c(CCC(=O)NCc4ccccc4)c(C)n3n2)c1`: 23.9% (inactive); `COC(=O)C[C@@H]1CC[C@@H]2[C@@H](COc3ccc(NC(=O)Nc4cccc(F)c4)cc3C(=O)N2C)O1`: -34.7% (inactive); `COC(=O)C[C@@H]1CC[C@@H]2[C@@H](COc3ccc(NC(=O)Cc4cccs4)cc3C(=O)N2C)O1`: -25% (inactive).

The assay is the same for the next values; noted with them: HepG2 viability, ATP luminescence (CellTiter-Glo), 72 h; at 8 µM; stronger effect = lower value; 0% = untreated, negative = ATP loss.
On to `COC(=O)C[C@@H]1CC[C@@H]2[C@H](COc3ccc(NC(=O)c4ccccc4)cc3C(=O)N2C)O1`, for which the max activity was -19.1% (inactive).
For `O=C(Nc1cccc(Oc2ccc3c(c2)C(=O)NC3=O)c1)c1cccs1`, the max activity is -36% (inactive).
The same measure, in the same setting: the same measure for `Cc1ccc(-c2ccc3c(c2)O[C@@H](CN(C)C(=O)Nc2ccc(F)cc2)[C@H](C)CN([C@@H](C)CO)S3(=O)=O)cc1`: -53.8% (inactive); for `COc1ccccc1CNC(=O)C[C@@H]1CC[C@H]2[C@@H](COC[C@H](O)CN2C(=O)Nc2ccc(C(F)(F)F)cc2)O1`: -30.7% (inactive).
On the same count and under the same terms, next, `N#CC1=C(N)Oc2cc(N)ccc2C1c1cccc(F)c1` (stereo not drawn): -30% (inactive).
The same measure, in the same setting: next, `CCc1ccc(/C=C2\SC(=S)N(CCCC(=O)NC3=NCCS3)C2=O)cc1`: -19% (inactive); `COc1ccccc1NC(=O)N1[C@@H]2CNC[C@H]1[C@@H]2c1ccc(-c2ccc(C#N)cc2)cc1`: -24.4% (inactive); `CC(C)c1ccccc1NC(=O)COC(=O)CCN1C(=O)/C(=C\C=C\c2ccccc2)SC1=S`: -10% (inactive).

The assay is the same for the next values; noted with them: HepG2 viability, ATP luminescence (CellTiter-Glo), 72 h; at 26 µM; stronger effect = lower value; 0% = untreated, negative = ATP loss.
As for `O=C(CNC(c1ccccc1)c1ccccc1)Nc1ccccc1-c1ccccc1`, the max activity is 10.7% (inactive).
Same read-out and setting: the same measure for `COc1ccc(-c2ccc3c(c2)[C@H]2[C@H](CCN2S(=O)(=O)c2ccc(OC)cc2)[C@@H](CO)N3C)cc1`: -27% (inactive).
As to `COc1ccc(C=C2CCc3ccccc3C2=O)cc1`, the max activity is -23.4% (inactive).
The same measure, in the same setting: the same measure for `CC1=NN(c2ccccc2)C(=O)/C1=C\C=C\c1ccccc1`: -54.8% (inactive).
The same measure, in the same setting: next, `COc1ccc(Cl)cc1S(=O)(=O)Nc1ccc2c(c1)n(C)c(=O)n2C`: -15.6% (inactive); `CC(C)(C)c1ccc(Cn2c(=O)cnc3ccccc32)cc1`: -40.9% (inactive); `CC(C)(C)c1ccc(Oc2ccc(NC(=O)C3CC=CCC3C(=O)O)cc2)cc1` (stereo not drawn): 17.4% (inactive).
With `O=C(CN1C(=O)c2ccccc2S1(=O)=O)c1ccc(F)cc1`, the max activity was 20.9% (inactive).
On the same count and under the same terms, the same measure for `Cc1cccc(NC(=O)CN2CCN(C(=O)CNC(=O)c3ccc(-c4ccccc4)cc3)CC2)c1C`: -36.3% (inactive); for `COC(=O)CC1(C(=O)OC)Oc2ccc(Br)cc2C(=O)N1c1cccc(Cl)c1Cl` (stereo not drawn): -23% (inactive); for `COc1ccc(-c2nc3c(s2)CCc2onc(-c4ccc(OC)cc4)c2-3)cc1`: -25.8% (inactive).
Still for that read-out and setting: next, `Cc1cc(C(=O)CN2C(=O)c3ccccc3S2(=O)=O)c(C)n1C(C)C`: 17.7% (inactive); `CCC1=Nc2cc(C(=O)NCC3CCCO3)ccc2Sc2ccc(Br)cc21` (stereo not drawn): -32.3% (inactive); `CC1=NN(c2ccc(C)cc2)C(=O)/C1=C\C=C\c1ccccc1`: -23.5% (inactive).
